# Biological target: c-Myc template DNA (c-myc quadruplex)
# Test: Quadruplex binding / stop assay (Taq polymerase arrest, capillary electrophoresis)
# Conditions: read-out: S DATA; Table 1D, stop assay data
row,IC50 [µM],SMILES
1,> 15,CC1(C)CC(NC(=O)c2cn3c4c(c(NCCN5CCOCC5)ccc4c2=O)Oc2cc4ccccc4cc2-3)CC(C)(C)N1 [compound 1549]
2,8,CC(C)N1CCN(c2c(F)cc3c(=O)c(C(=O)NCCN4CCCC4)cn4c3c2Oc2cc(Cl)ccc2-4)CC1 [compound 1797]
3,0.75,CN1CCCC1CCNC(=O)c1cn2c3c(c(N4CCC(N5CCCC5)CC4)c(F)cc3c1=O)Oc1cc3ccccc3cc1-2 (stereo not drawn) [compound 1492]
4,> 15,CN1CCCC1CCNC(=O)c1cn2c3c(c(NCc4ccccc4N4CCCCC4)c(F)cc3c1=O)Oc1cc3ccccc3cc1-2 (stereo not drawn) [compound 1509]
5,1,N=C(N)NCCCNC(=O)c1cn2c3c(c(NCCN4CCCC4)c(F)cc3c1=O)Oc1cc3ccccc3cc1-2 [compound 1654]
6,> 15,NC1CCN(c2c(F)cc3c(=O)c(C(=O)NCCc4ccc(O)c(O)c4)cn4c3c2Oc2cc3ccccc3cc2-4)C1 (stereo not drawn) [compound 1706]
7,1,N=C(N)NCCCNC(=O)c1cn2c3c(c(N4CC5CCCNC5C4)c(F)cc3c1=O)Oc1cc3ccccc3cc1-2 (stereo not drawn) [compound 1647]
8,1.75,CN(CCCNc1c(F)cc2c(=O)c(C(=O)NCCC3CCCN3C)cn3c2c1Oc1cc2ccccc2cc1-3)c1ccccc1 (stereo not drawn) [compound 1503]
9,> 15,CN(C)CCCCNC(=O)c1cn2c3c(c(N4CCC(NC(=O)OC(C)(C)C)C4)c(F)cc3c1=O)Oc1ccccc1-2 (stereo not drawn) [compound 1588]
10,3.2,CC(=O)N1CCN(c2c(F)cc3c(=O)c(C(=O)NCCN4CCCC4)cn4c3c2Oc2cc(Cl)ccc2-4)CC1 [compound 1812]
11,10,CN1CCN(c2c(F)cc3c(=O)c(C(=O)NCCN4CCCC4)cn4c3c2Oc2cc(Cl)ccc2-4)CC1 [compound 1817]
12,> 15,NCCCCNC(=O)c1cn2c3c(c(NCCN4CCCC4)c(F)cc3c1=O)Oc1ccccc1-2 [compound 1599]
13,> 15,CCOCCCNC(=O)c1cn2c3c(c(N4CCC(N)C4)c(F)cc3c1=O)Oc1cc3ccccc3cc1-2 (stereo not drawn) [compound 1697]
14,> 15,O=C(NCCN1CCOCC1)c1cn2c3c(c(NCCN4CCCC4)c(F)cc3c1=O)Oc1ccccc1-2 [compound 1593]
15,> 15,CC(C)N1CCN(c2c(F)cc3c(=O)c(C(=O)N4CCN(C)CC4)cn4c3c2Oc2ccccc2-4)CC1 [compound 1570]
16,> 15,CC1(C)CC(NC(=O)c2cn3c4c(c(NCCN5CCCC5)c(F)cc4c2=O)Oc2ccccc2-3)CC(C)(C)N1 [compound 1603]
17,1.75,CCOC(=O)N1CCC(Nc2c(F)cc3c(=O)c(C(=O)NCCC4CCCN4C)cn4c3c2Oc2cc3ccccc3cc2-4)CC1 (stereo not drawn) [compound 1485]
18,5.8,CN1CCCC1CCNC(=O)c1cn2c3c(c(SCCc4cnccn4)c(SCCc4cnccn4)cc3c1=O)Oc1cc3ccccc3cc1-2 (stereo not drawn) [compound 1774]
19,1.75,CN1CCC(N(C)c2c(F)cc3c(=O)c(C(=O)NCCC4CCCN4C)cn4c3c2Oc2cc3ccccc3cc2-4)CC1 (stereo not drawn) [compound 1486]
20,1.12,O=C(NCCN1CCCC1)c1cn2c3c(c(N4CCC(c5cnccn5)C4)c(F)cc3c1=O)Oc1cc3ccccc3cc1-2 (stereo not drawn) [compound 1664]
21,> 15,CN1CCN(CCCNC(=O)c2cn3c4c(c(NCCN5CCCC5)c(F)cc4c2=O)Oc2ccccc2-3)CC1 [compound 1594]
22,3.6,CN1CCCC1CCNC(=O)c1cn2c3c(c(N4CCC(c5cnccn5)C4)c(F)cc3c1=O)Oc1cc(Cl)ccc1-2 (stereo not drawn) [compound 1765]
23,> 15,CN1CCCC1CCNC(=O)c1cn2c3c(c(NCC4OCCO4)c(F)cc3c1=O)Oc1cc3ccccc3cc1-2 (stereo not drawn) [compound 1745]
24,10,COCC(=O)N1CCN(c2c(F)cc3c(=O)c(C(=O)NCCN4CCCC4)cn4c3c2Oc2cc(Cl)ccc2-4)CC1 [compound 1825]
25,1.75,CCN(CC)C(=O)C1CCCN(c2c(F)cc3c(=O)c(C(=O)NCCC4CCCN4C)cn4c3c2Oc2cc3ccccc3cc2-4)C1 (stereo not drawn) [compound 1479]
26,> 15,O=C(NCCCN1CCOCC1)c1cn2c3c(c(NCCCN4CCOCC4)ccc3c1=O)Oc1cc3ccccc3cc1-2 [compound 1530]
27,7.8,CN1CCCC1CCNC(=O)c1cn2c3c(c(N4CCN(c5ncccn5)CC4)c(F)cc3c1=O)Oc1cc(Cl)ccc1-2 (stereo not drawn) [compound 1810]
28,> 15,CC(C)(C)OC(=O)NC1CCN(c2ccc3c(=O)c(C(=O)NCCN4CCCC4)cn4c3c2Oc2cc3ccccc3cc2-4)C1 (stereo not drawn) [compound 1534]

row,SMILES,IC50 [µM]
1,CN1CCCC1CCNC(=O)c1cn2c3c(c(NC4CC(C)(C)N(O)C(C)(C)C4)c(F)cc3c1=O)Oc1cc3ccccc3cc1-2 (stereo not drawn) [compound 1484],1.75

# Same assay, conditions: read-out: Stop Data c-Myc μM; concentration at which 50% of the DNA was arrested (arrested:full-length 1:1)
row,IC50 [µM],SMILES
1,1,N=C(N)NCCCNC(=O)c1cn2c3c(c(N4CC5CCCNC5C4)c(F)cc3c1=O)Oc1cc3ccccc3cc1-2 (stereo not drawn) [compound 327]
2,1.75,O=C(Nc1nc2ccccc2s1)c1cn2c3c(c(NCCN4CCCC4)c(F)cc3c1=O)Oc1ccccc1-2 [compound 118]
3,1.75,CC1CCN(CCCNC(=O)c2cn3c4c(c(N5CCC(NC(=O)OC(C)(C)C)C5)c(F)cc4c2=O)Oc2cc4ccccc4cc2-3)CC1 (stereo not drawn) [compound 243]
4,2.5,O=C(NCCN1CCOCC1)c1cn2c3c(c(NCCN4CCOCC4)c(F)cc3c1=O)Oc1cc3ccccc3cc1-2 [compound 54]
5,1.75,CN(C)CCCNC(=O)c1cn2c3c(c(N4CCC(N)C4)c(F)cc3c1=O)Oc1cc3ccccc3cc1-2 (stereo not drawn) [compound 246]
6,0.75,CC(C)(C)OC(=O)N[C@@H]1CCN(c2c(F)cc3c(=O)c(C(=O)NCCCN)cn4c3c2Oc2cc3ccccc3cc2-4)C1 [compound 428]
7,1.75,N[C@H]1CCN(C(=O)c2cn3c4cc5c(cc4oc4c(NCCCN6CCOCC6)c(F)cc(c2=O)c43)c(=O)c2ccccc25)C1 [compound 216]
8,2.5,CN1CCN(CCCNc2c(F)cc3c(=O)c(C(=O)N4CC[C@@H](NC(=O)OC(C)(C)C)C4)cn4c3c2Oc2cc3ccccc3cc2-4)CC1 [compound 61]
9,1.75,CN1CCCC1CCNc1c(F)cc2c(=O)c(C(=O)N3CC[C@H](NC(=O)OC(C)(C)C)C3)cn3c4cc5c(cc4oc1c23)c(=O)c1ccccc15 (stereo partly drawn) [compound 206]
10,2.5,N[C@@H]1CCN(C(=O)c2cn3c4c(c(N5CC[C@@H](N)C5)c(F)cc4c2=O)Oc2c-3ccc3ccccc23)C1 [compound 78]
11,1.75,O=C(NCCCN1CCOCC1)c1cn2c3cc4c(=O)c5ccccc5c(=O)c4cc3oc3c(NCCCN4CCOCC4)c(F)cc(c1=O)c32 [compound 166]
12,0.75,CN1CCCC1CCNC(=O)c1cn2c3c(c(N4CCC(c5cccnc5)C4)c(F)cc3c1=O)Oc1cc3ccccc3cc1-2 (stereo not drawn) [compound 443]
13,0.75,CN(C)CCCCNc1ccc2c(=O)c(C(=O)NCCN3CCOCC3)cn3c2c1Oc1cc2ccccc2cc1-3 [compound 453]
14,1,N=C(N)NCC1CCCC(CNC(=O)c2cn3c4c(c(NCCCN5CCOCC5)c(F)cc4c2=O)Oc2cc4ccccc4cc2-3)C1 (stereo not drawn) [compound 331]
15,1.75,CN(C)CCCCNC(=O)c1cn2c3c(c(N4CC[C@@H](N)C4)c(F)cc3c1=O)Oc1c-2ccc2ccccc12 [compound 156]
16,2.5,CC(C)(C)OC(=O)N[C@@H]1CCN(C(=O)c2cn3c4c(c(NCCN5CCCC5)c(F)cc4c2=O)Oc2cc4ccccc4cc2-3)C1 [compound 72]
17,0.75,CC1(C)CC(NC(=O)c2cn3c4c(c(N5CCC(N)C5)c(F)cc4c2=O)Oc2cc4ccccc4cc2-3)CC(C)(C)N1 (stereo not drawn) [compound 444]

row,IC50 [µM],SMILES
1,1.75,Nc1c(F)c(N2CCC(N)C2)c2c3c1c(=O)c(C(=O)NCCN1CCCC1)cn3-c1cc3ccccc3cc1O2 (stereo not drawn) [compound 233]
2,0.75,CN1CCCC1CCNC(=O)c1cn2c3cc4c(cc3oc3c(NCCN5CCOCC5)c(F)cc(c1=O)c32)c(=O)c1ccccc14 (stereo not drawn) [compound 422]
3,1,CC(C)(C)OC(=O)NC1CCN(c2c(F)cc3c(=O)c(C(=O)NCCCCN4CCCC4)cn4c3c2Oc2cc3ccccc3cc2-4)C1 (stereo not drawn) [compound 323]
4,2.5,CN1CCN(CCCNC(=O)c2cn3c4c(c(NCCCN5CCOCC5)c(F)cc4c2=O)Oc2cc4ccccc4cc2-3)CC1 [compound 49]
5,1,CN1CCCC1CCNC(=O)c1cn2c3c(c(NC4CCS(=O)(=O)C4)c(F)cc3c1=O)Oc1cc3ccccc3cc1-2 (stereo not drawn) [compound 338]
6,2.5,O=C(NCCN1CCOCC1)c1cn2c3c(c(NCCCN4CCOCC4)c(F)cc3c1=O)Oc1cc3ccccc3cc1-2 [compound 48]
7,1.75,N[C@H]1CCN(C(=O)c2cn3c4cc5c(cc4oc4c(NCCN6CCCC6)c(F)cc(c2=O)c43)c(=O)c2ccccc25)C1 [compound 214]
8,1.75,O=C(NCCCN1CCOCC1)c1cn2c3c(c(NCCN4CCCC4)c(F)cc3c1=O)Oc1c-2ccc2ccccc12 [compound 137]
9,1.75,CC(C)(C)OC(=O)NC1CCN(c2c(F)cc3c(=O)c(C(=O)NCCc4cnc[nH]4)cn4c3c2Oc2cc3ccccc3cc2-4)C1 (stereo not drawn) [compound 181]
10,1.75,CN1CCCC1CCNC(=O)c1cn2c3cc4c(=O)c5ccccc5c(=O)c4cc3oc3c(N4CCC(NC(=O)OC(C)(C)C)C4)c(F)cc(c1=O)c32 (stereo not drawn) [compound 168]
11,1.75,CN(C)/C=N/CCCNC(=O)c1cn2c3c(c(N4CC[C@@H](NC(=O)OC(C)(C)C)C4)c(F)cc3c1=O)Oc1cc3ccccc3cc1-2 [compound 211]
12,1.75,CN1CCN(CCCNC(=O)c2cn3c4cc5c(cc4oc4c(NCCCN6CCOCC6)c(F)cc(c2=O)c43)c(=O)c2ccccc25)CC1 [compound 209]
13,0.58,CN1CCCC1CCNc1c(F)cc2c(=O)c(C(=O)NCCCN3CCOCC3)cn3c2c1Oc1c-3ccc2ccccc12 (stereo not drawn) [compound 476]
14,1.75,CC(C)(C)OC(=O)N[C@H]1CCN(c2c(F)cc3c(=O)c(C(=O)NCCN4CCOCC4)cn4c5cc6c(cc5oc2c34)c(=O)c2ccccc26)C1 [compound 208]
15,0.75,CN1CCCC1CCNC(=O)c1cn2c3cc4oc5cc([N+](=O)[O-])ccc5[nH]c4cc3oc3c(NCCN4CCOCC4)c(F)cc(c1=O)c32 (stereo not drawn) [compound 407]
16,0.75,CN1CCCC1CCNC(=O)c1cn2c3cc4c(cc3oc3c(NCCCN5CCOCC5)c(F)cc(c1=O)c32)c(=O)c1ccccc14 (stereo not drawn) [compound 420]
17,1.75,CC(O)CNc1c(F)cc2c(=O)c(C(=O)NCCC3CCCN3C)cn3c2c1Oc1cc2ccccc2cc1-3 (stereo not drawn) [compound 283]
